# Read-outs that look alike come from different tables or passages of the source.
# Assays:
# [1] = tested on: MOLT-4; experiment: NCI five-dose assay; type: cell-based, human; settings: MOLT-4, Leukemia
# [2] = tested on: HOP-62; experiment: NCI five-dose assay; type: cell-based, human; settings: HOP-62, Non-small cell lung cancer
# [3] = tested on: NCI-H23; experiment: NCI five-dose assay; type: cell-based, human; settings: NCI-H23, Non-small cell lung cancer
# [4] = tested on: COLO205; experiment: NCI five-dose assay; type: cell-based, human; settings: COLO205, Colon cancer
# [5] = tested on: HCT-116; experiment: NCI five-dose assay; type: cell-based, human; settings: HCT-116, Colon cancer
# [6] = tested on: KM12; experiment: NCI five-dose assay; type: cell-based, human; settings: KM12, Colon cancer
# [7] = tested on: SNB-75; experiment: NCI five-dose assay; type: cell-based, human; settings: SNB-75, CNS cancer
# [8] = tested on: U251; experiment: NCI five-dose assay; type: cell-based, human; settings: Homo sapiens, U-251, U251, CNS cancer
# [9] = tested on: LOX IMVI; experiment: NCI five-dose assay; type: cell-based, human; settings: Melanoma
# [10] = tested on: MDA-MB-435; experiment: NCI five-dose assay; type: cell-based, human; settings: MDA-MB-435, Melanoma
# [11] = tested on: SK-MEL-5; experiment: NCI five-dose assay; type: cell-based, human; settings: SK-MEL-5, Melanoma
# [12] = tested on: UACC-257; experiment: NCI five-dose assay; type: cell-based, human; settings: UACC-257, Melanoma
# [13] = tested on: UACC-62; experiment: NCI five-dose assay; type: cell-based, human; settings: UACC-62, Melanoma
# [14] = tested on: OVCAR-3; experiment: NCI five-dose assay; type: cell-based, human; settings: OVCAR-3, Ovarian cancer
# [15] = tested on: OVCAR-4; experiment: NCI five-dose assay; type: cell-based, human; settings: OVCAR-4, Ovarian cancer
# [16] = tested on: TK-10; experiment: NCI five-dose assay; type: cell-based, human; settings: TK-10, Renal cancer
# [17] = tested on: DU-145; experiment: NCI five-dose assay; type: cell-based, human; settings: DU-145, Prostate cancer
# [18] = tested on: MCF7; experiment: NCI five-dose assay; type: cell-based, human; settings: MCF7, Breast cancer
# [19] = tested on: HS 578T; experiment: NCI five-dose assay; type: cell-based, human; settings: Breast cancer
# [20] = tested on: BT-549; experiment: NCI five-dose assay; type: cell-based, human; settings: BT-549, Breast cancer
# [21] = tested on: T-47D; experiment: NCI five-dose assay; type: cell-based, human; settings: Breast cancer
# [22] = tested on: Leukemia subpanel; experiment: NCI five-dose assay, subpanel mean; type: cell-based, human
# [23] = tested on: Melanoma subpanel; experiment: NCI five-dose assay, subpanel mean; type: cell-based, human
# [24] = tested on: Breast cancer subpanel; experiment: NCI five-dose assay, subpanel mean; type: cell-based, human
# [25] = target: T1, tubulin (Sus scrofa, UniProt P02550+P02554); experiment: Tubulin polymerization inhibitory assay; type: biochemical
# T1 construct: purchased Cytoskeleton Inc., Denver, CO, USA
# From the text: The substances’ effects on tubulin polymerization were examined using the Tubulin Polymerization Assay Kit (Cytoskeleton Inc., Denver, CO, USA) according to the supplier’s instructions, with details described in Appendix A..
# The activity of compounds on tubulin polymerization was investigated using the Tubulin Polymerization Assay Kit (Cytoskeleton Inc., Denver, CO, USA), which works via fluorescent reporter enhancement. […] Docetaxel and vincristine (Apoteket AB, Stockholm, Sweden) served as positive stabilizing and destabilizing controls. Both were used at a 3 µM concentration in PBS.
# [26] = Homo sapiens, 48 h, read-out: LC50 (the source's name)
# [27] = Homo sapiens, read-out: GI50 Conc. per Cell Lines
# T1 sequence (P02554 whole entry): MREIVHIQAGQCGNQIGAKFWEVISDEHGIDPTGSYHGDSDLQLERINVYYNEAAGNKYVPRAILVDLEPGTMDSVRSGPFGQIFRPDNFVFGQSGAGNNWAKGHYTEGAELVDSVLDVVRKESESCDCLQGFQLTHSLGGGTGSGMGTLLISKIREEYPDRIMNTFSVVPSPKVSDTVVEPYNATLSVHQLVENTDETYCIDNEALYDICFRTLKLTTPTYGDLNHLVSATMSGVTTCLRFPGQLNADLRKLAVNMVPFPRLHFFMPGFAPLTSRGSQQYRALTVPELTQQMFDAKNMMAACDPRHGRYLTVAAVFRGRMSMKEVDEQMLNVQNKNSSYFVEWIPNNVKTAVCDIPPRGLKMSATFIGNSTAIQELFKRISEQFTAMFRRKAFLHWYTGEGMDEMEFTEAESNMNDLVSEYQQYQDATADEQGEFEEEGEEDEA
# T1 sequence (P02550 whole entry): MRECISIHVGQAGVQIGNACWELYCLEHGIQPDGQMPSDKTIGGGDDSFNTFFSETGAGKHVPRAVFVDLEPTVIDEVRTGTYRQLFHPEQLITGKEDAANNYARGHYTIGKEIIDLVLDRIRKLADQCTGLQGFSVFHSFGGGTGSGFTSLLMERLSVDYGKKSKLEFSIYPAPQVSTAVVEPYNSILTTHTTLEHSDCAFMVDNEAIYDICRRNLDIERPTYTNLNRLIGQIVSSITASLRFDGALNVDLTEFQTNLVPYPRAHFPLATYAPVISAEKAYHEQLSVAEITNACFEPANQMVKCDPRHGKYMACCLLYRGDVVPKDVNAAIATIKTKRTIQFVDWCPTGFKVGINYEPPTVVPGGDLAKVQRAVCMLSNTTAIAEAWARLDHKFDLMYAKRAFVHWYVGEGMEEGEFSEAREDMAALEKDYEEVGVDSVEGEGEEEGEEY
compound,measurement,setting,value
"O/N=C(\CSc1nnc(-c2c[nH]c3ccccc23)n1-c1ccccc1)c1ccc(Br)cc1 [Compound 7i, (Z)-2-((5-(1H-Indol-3-yl)-4-phenyl-4H-1,2,4-triazol-3-yl)thio)-1-(4-bromophenyl) Ethanone Oxime]",CC50,[1]; [26],> 100 µM
same,GI50,[1]; [27],2.09 µM
same,TGI Conc. per Cell Lines,[1],4.80 µM
same,TGI Conc. per Cell Lines,[2],3.98 µM
same,GI50,[2]; [27],1.86 µM
same,CC50,[3]; [26],84.3 µM
same,GI50,[3]; [27],4.31 µM
same,TGI Conc. per Cell Lines,[3],19.60 µM
same,TGI Conc. per Cell Lines,[4],16.60 µM
same,CC50,"[4]; Homo sapiens, COLO 205, 48 h, read-out: LC50 (the source's name)",> 100 µM
same,GI50,"[4]; Homo sapiens, COLO 205, read-out: GI50 Conc. per Cell Lines",3.8 µM
same,TGI Conc. per Cell Lines,[5],17.40 µM
same,CC50,[5]; [26],> 100 µM
same,GI50,[5]; [27],3.45 µM
same,CC50,[6]; [26],> 100 µM
same,GI50,[6]; [27],4.15 µM
same,TGI Conc. per Cell Lines,[6],29.20 µM
same,CC50,[7]; [26],28.1 µM
same,GI50,[7]; [27],1.87 µM
same,TGI Conc. per Cell Lines,[7],4.95 µM
same,CC50,"[8]; 48 h, read-out: LC50 (the source's name)",51.2 µM
same,GI50,[8]; read-out: GI50 Conc. per Cell Lines,4.38 µM
same,CC50,[9]; [26],5.69 µM
same,GI50,[9]; [27],1.71 µM
same,TGI Conc. per Cell Lines,[9],3.12 µM
same,CC50,[10]; [26],7.57 µM
same,GI50,[10]; [27],2.01 µM
same,TGI Conc. per Cell Lines,[10],3.89 µM
same,CC50,[11]; [26],35.8 µM
same,GI50,[11]; [27],3.55 µM
same,TGI Conc. per Cell Lines,[11],12.80 µM
same,CC50,[12]; [26],72.6 µM
same,GI50,[12]; [27],3.87 µM
same,TGI Conc. per Cell Lines,[12],17.50 µM
same,CC50,[13]; [26],7.93 µM
same,GI50,[13]; [27],1.77 µM
same,TGI Conc. per Cell Lines,[13],3.74 µM
same,LC50,"[14]; Homo sapiens, 48 h",> 100 µM
same,GI50,[14]; [27],4.98 µM
same,TGI Conc. per Cell Lines,[14],23.8 µM
same,GI50,[15]; [27],2.14 µM
same,TGI Conc. per Cell Lines,[15],4.57 µM
same,CC50,[16]; [26],30.4 µM
same,GI50,[16]; [27],2.8 µM
same,TGI Conc. per Cell Lines,[16],7.63 µM
same,TGI Conc. per Cell Lines,[17],4.08 µM
same,GI50,[17]; [27],2.05 µM
same,LC50,"[18]; Homo sapiens, 48 h",63.6 µM
same,GI50,[18]; [27],3.49 µM
same,TGI Conc. per Cell Lines,[18],15.3 µM
same,TGI Conc. per Cell Lines,[19],11.90 µM
same,LC50,"[19]; Homo sapiens, 48 h",> 100 µM
same,GI50,[19]; [27],2.84 µM
same,TGI Conc. per Cell Lines,[20],7.25 µM
same,CC50,[20]; [26],34.2 µM
same,GI50,[20]; [27],3.16 µM
same,TGI Conc. per Cell Lines,[21],17.20 µM
same,LC50 (concentration killing 50% of cells),"[21]; Homo sapiens, T47D, 48 h",> 100 µM
same,GI50,"[21]; Homo sapiens, T47D, read-out: GI50 Conc. per Cell Lines",3.51 µM
same,GI50,"[22]; Homo sapiens, average sensitivity of all cell lines of the Leukemia subpanel, read-out: GI50 Subpanel MID b",2.29 µM
same,GI50 Selectivity Ratio (MID a/MID b),[22]; Leukemia subpanel,1.22
same,GI50,"[23]; Homo sapiens, average sensitivity of all cell lines of the Melanoma subpanel, read-out: GI50 Subpanel MID b",2.89 µM
same,GI50 Selectivity Ratio (MID a/MID b),[23]; Melanoma subpanel,0.97
same,GI50 Selectivity Ratio (MID a/MID b),[24]; Breast cancer subpanel,1.02
same,GI50,"[24]; Homo sapiens, average sensitivity of all cell lines of the Breast cancer subpanel, read-out: GI50 Subpanel MID b",2.73 µM
same,%inhibition,[25]; conc 0.01 (unit not given; IC50 from this curve in µg/ml),6.76%
same,%inhibition,[25]; conc 0.1 (unit not given; IC50 from this curve in µg/ml),21%
same,%inhibition,[25]; conc 1 (unit not given; IC50 from this curve in µg/ml),47.4%
same,%inhibition,[25]; conc 10 (unit not given; IC50 from this curve in µg/ml),68.5%
same,%inhibition,[25]; conc 100 (unit not given; IC50 from this curve in µg/ml),87%
same,IC50,[25]; read-out: Tub. IC50±SD (converted),3.03 µM
same,IC50,"[25]; read-out: Tubulin Inhibitory Effect, IC50",3.03 ± 0.11 µM

# Source: PMC11859928, “Design, Synthesis, and Antiproliferative Activity of Novel Indole/1,2,4-Triazole Hybrids as Tubulin Polymerization Inhibitors” (Pharmaceuticals, 2025)
